According to patent US8106055B2, “Substituted amide compounds” (Gruenenthal GmbH, priority 2007, dated 2012):

Legend:
[1] = target: T1, human bradykinin 1 receptor (B1R) (Homo sapiens, UniProt P46663); assay: Functional investigation on the human bradykinin 1 receptor (B1R), Ca2+ FLIPR assay in CHO K1 hB1R cells; assay type: cell-based; conditions: CHO-K1, B1R antagonism human; test substance 10 μM; Ca2+ FLIPR, CHO K1 hB1R cells; read-out: B1R Ant. h [10 μM] % Inhibition
T1 construct: expressed in transfected cells; host or cells: CHO K1 cells
T1 sequence (P46663 1-353): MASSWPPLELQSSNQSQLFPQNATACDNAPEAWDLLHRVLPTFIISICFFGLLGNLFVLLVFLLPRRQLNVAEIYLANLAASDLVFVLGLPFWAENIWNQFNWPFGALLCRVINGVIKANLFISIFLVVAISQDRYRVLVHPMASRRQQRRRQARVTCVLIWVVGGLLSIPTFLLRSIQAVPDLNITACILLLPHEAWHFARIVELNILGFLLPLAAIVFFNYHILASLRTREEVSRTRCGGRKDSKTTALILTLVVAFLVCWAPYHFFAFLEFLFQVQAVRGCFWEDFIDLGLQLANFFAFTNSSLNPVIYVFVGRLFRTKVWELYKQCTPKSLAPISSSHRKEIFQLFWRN
Excerpt: (§1) Functional Investigation on the Human Bradykinin 1 Receptor (B1R)
(§2) The agonistic or antagonistic action of substances can be determined on the bradykinin 1 receptor (B1R) of the human species and rats with the following assay. In accordance with this assay, the Ca^2+ inflow through the channel is quantified with the aid of a Ca^2=-sensitive dyestuff (type Fluo-4, Molecular Probes Europe BV, Leiden, Holland) in a fluorescent imaging plate reader (FLIPR, Molecular Devices, Sunnyvale, USA).
(§3) Chinese hamster ovary cells (CHO K1 cells) transfected stably with the human B1R gene (hB1R cells) or the B1R gene of the rat (rB1R cells) are used. For functional studies, these cells are plated out on black 96-well plates with a clear base (BD Biosciences, Heidelberg, Germany or Greiner, Frickenhausen, Germany) in a density of 20,000-35,000 cells/well. The cells are left overnight at 37° C. and 5% CO2 in culture medium (hB1R cells: Nutrient Mixture Ham's F12, Gibco Invitrogen GmbH, Karlsruhe, Germany or DMEM, Sigma-Aldrich, Taufkirchen, Germany; rB1R cells: D-MEM/F12, Gibco Invitrogen GmbH, Karlsruhe, Germany) with 10 vol. % of FBS (foetal bovine serum, Gibco Invitrogen GmbH, Karlsruhe, Germany or PAN Biotech GmbH, Aidenbach, Germany).
(§4) On the following day, the cells are loaded for 60 min at 37° C. with 2.13 μM Fluo-4 (Molecular Probes Europe BV, Leiden, The Netherlands) in HBSS buffer (Hank's buffered saline solution, Gibco Invitrogen GmbH, Karlsruhe, Germany) with 2.5 mM probenecid (Sigma-Aldrich, Taufkirchen, Germany) and 10 mM HEPES (Sigma-Aldrich, Taufkirchen, Germany). The plates are then washed 2× with HBSS buffer, and HBSS buffer which additionally contains 0.1% of BSA (bovine serum albumin; Sigma-Aldrich, Taufkirchen, Germany), 5.6 mM glucose and 0.05% of gelatine (Merck KGaA, Darmstadt, Germany) is added. After a further incubation of 20 minutes at room temperature, the plates are inserted into the FLIPR for the Ca^2+ measurement.
(§5) Alternatively, the plates are washed with buffer A (15 mM HEPES, 80 mM NaCl, 5 mM KCl, 1.2 mM CaCl2, 0.7 mM MgSO4, 2 g/l glucose, 2.5 mM probenecid), buffer A is added and the plates are loaded with 2.5 μM Fluo-4 and 0.025% of Pluronic F127 (Sigma-Aldrich, Taufkirchen, Germany). Thereafter, the cells are washed 2× with buffer A and incubated for 30 minutes with buffer A, which additionally contains 0.05% of BSA and 0.05% of gelatine, at room temperature and thereafter inserted into the FLIPR for the Ca^2+ measurement.
(§6) The Ca^2+-dependent fluorescence is measured before and after addition of substances (λex=488 nm, λem=540 nm). Quantification is by measurement of the highest fluorescence intensity (FC, fluorescence counts) over time.
(§7) The FLIPR protocol consists of 2 additions of substance. Test substances (10 μM) are first pipetted on to the cells and the Ca^2+ inflow is compared with the control (hB1R: Lys-Des-Arg^9-bradykinin >=50 nM; rB1R: Des-Arg^9-bradykinin 10 μM). This gives the information in % activation based on the Ca^2+ signal after addition of Lys-Des-Arg^9-bradykinin (>=50 nM) or Des-Arg^9-bradykinin (10 μM).
(§8) After incubation for 10-20 minutes, Lys-Des-Arg^9-bradykinin (hB1R) or Des-Arg^9-bradykinin (rB1R) is applied in the concentration of the EC80 and the inflow of Ca^2+ is likewise determined.
(§9) Antagonists lead to a suppression of the Ca^2+ inflow. % inhibition compared with the maximum achievable inhibition is calculated.
(§10) To determine the IC50 value, the substances are added in various concentrations. Duplicate or triplicate determinations (n=2 or n=3) are carried out, and these are repeated in at least one further independent experiment (N>=2).
(§11) Preferably, the compounds have a B1R antagonistic action on the human receptor and/or on the rat receptor. The following data are given by way of example in the following table: (In this, “B1R Ant. h” represents “B1R antagonism human” and “B1R Ant. r” represents “B1R antagonism rat”)

[2] = target: T2, bradykinin 1 receptor (B1R) of the rat (Rattus norvegicus, UniProt P97583); assay: Functional investigation on the rat bradykinin 1 receptor (B1R), Ca2+ FLIPR assay in CHO K1 rB1R cells; assay type: cell-based; conditions: CHO-K1, B1R antagonism rat; test substance 10 μM; Ca2+ FLIPR, CHO K1 rB1R cells; read-out: B1R Ant. r [10 μM] % Inhibition
T2 construct: expressed in transfected cells; host or cells: CHO K1 cells
T2 sequence (P97583 1-337): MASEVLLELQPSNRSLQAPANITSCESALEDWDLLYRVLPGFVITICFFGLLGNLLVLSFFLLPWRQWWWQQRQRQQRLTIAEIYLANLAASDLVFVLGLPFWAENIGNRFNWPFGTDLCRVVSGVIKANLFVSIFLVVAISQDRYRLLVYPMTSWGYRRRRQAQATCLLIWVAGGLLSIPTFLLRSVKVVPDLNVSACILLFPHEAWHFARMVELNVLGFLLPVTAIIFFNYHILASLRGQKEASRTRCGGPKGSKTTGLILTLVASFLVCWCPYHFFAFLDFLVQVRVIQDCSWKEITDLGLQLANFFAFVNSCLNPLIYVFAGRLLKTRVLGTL
Excerpt: as §1, §2, §3, §4, §5, §6, §7, §8, §9, §10, §11

SMILES | inhibition at 10 µM [1] [%] | inhibition at 10 µM [2] [%]
COc1ccc(-c2noc(C(=O)NCC(=O)NC3CCC(C(c4ccccc4)N(C)C)CC3)n2)cc1OC (stereo not drawn) [Example 775, 3-(3,4-dimethoxy-phenyl)-[1,2,4]oxadiazole-5-carboxylic acid {[4-(dimethylamino-phenyl-methyl)-cyclohexylcarbamoyl]-methyl}-amide] | -7 | 20
CN(C)C(c1cccs1)C1CCC(NC(=O)CNC(=O)c2nc(-c3ccc(C(F)(F)F)cc3)no2)CC1 (stereo not drawn) [Example 777, 3-(4-trifluoromethyl-phenyl)-[1,2,4]oxadiazole-5-carboxylic acid {[4-(dimethylamino-thiophen-2-yl-methyl)-cyclohexylcarbamoyl]-methyl}-amide] | -1 | 27
CN(C)C(CCc1ccccc1)C1CCC(NC(=O)CNC(=O)c2nc(-c3cccs3)no2)CC1 (stereo not drawn) [Example 784, 3-thiophen-2-yl-[1,2,4]oxadiazole-5-carboxylic acid {[4-(1-dimethylamino-3-phenyl-propyl)-cyclohexylcarbamoyl]-methyl}-amide] | 76 | -1
CN(C)C(c1ccccc1)C1CCC(NC(=O)CCNC(=O)c2nc(-c3cccs3)no2)CC1 (stereo not drawn) [Example 776, 3-thiophen-2-yl-[1,2,4]oxadiazole-5-carboxylic acid {2-[4-(dimethylamino-phenyl-methyl)-cyclohexylcarbamoyl]-ethyl}-amide] | -22 | 30
CN(C)C(c1ccccc1)C1CCC(NC(=O)CNC(=O)c2nc(-c3cc(Cl)cc(Cl)c3)no2)CC1 (stereo not drawn) [Example 760, 3-(3,5-dichloro-phenyl)-[1,2,4]oxadiazole-5-carboxylic acid {[4-(dimethylamino-phenyl-methyl)-cyclohexylcarbamoyl]-methyl}-amide] | 66 | -4
COc1ccc(-c2noc(C(=O)NCCC(=O)NC3CCC(C(c4ccccc4)N(C)C)CC3)n2)cc1OC (stereo not drawn) [Example 774, 3-(3,4-dimethoxy-phenyl)-[1,2,4]oxadiazole-5-carboxylic acid {2-[4-(dimethylamino-phenyl-methyl)-cyclohexylcarbamoyl]-ethyl}-amide] | -8 | 2
COc1ccccc1-c1noc(C(=O)NCC(=O)NC2CCC(C(c3ccccc3)N(C)C)CC2)n1 (stereo not drawn) [Example 763, 3-(2-methoxy-phenyl)-[1,2,4]oxadiazole-5-carboxylic acid {[4-(dimethylamino-phenyl-methyl)-cyclohexylcarbamoyl]-methyl}-amide] | -10 | 22
CN(C)C(c1ccccc1)C1CCC(NC(=O)CCNC(=O)c2nc(-c3ccc(Cl)cc3Cl)no2)CC1 (stereo not drawn) [Example 773, 3-(2,4-dichloro-phenyl)-[1,2,4]oxadiazole-5-carboxylic acid {2-[4-(dimethylamino-phenyl-methyl)-cyclohexylcarbamoyl]-ethyl}-amide] | 20 | 17
CN(C)C(CCc1ccccc1)C1CCC(NC(=O)CNC(=O)c2nc(-c3cc(Cl)cc(Cl)c3)no2)CC1 (stereo not drawn) [Example 790, 3-(3,5-dichloro-phenyl)-[1,2,4]oxadiazole-5-carboxylic acid {[4-(1-dimethylamino-3-phenyl-propyl)-cyclohexylcarbamoyl]-methyl}-amide] | 35 | 11
CN(C)C(CCc1ccccc1)C1CCC(NC(=O)CNC(=O)c2nc(-c3ccc(C(F)(F)F)cc3)no2)CC1 (stereo not drawn) [Example 785, 3-(4-trifluoromethyl-phenyl)-[1,2,4]oxadiazole-5-carboxylic acid {[4-(1-dimethylamino-3-phenyl-propyl)-cyclohexylcarbamoyl]-methyl}-amide] | 76 | 32
O=C(COCCN(C1CC1)S(=O)(=O)c1c(Cl)cc(Cl)cc1Cl)NC1CCC(C(c2ccccc2)N2CCOCC2)CC1 (stereo not drawn) [Example 605, 2-{2-[cyclopropyl-(2,4,6-trichlorobenzenesulfonyl)-amino]-ethoxy}-N-[4-(morpholin-4-yl-phenylmethyl)-cyclohexyl]-acetamide] | 40 | 38
CN(Cc1ccccc1)C(c1ccccc1)C1CCC(NC(=O)COCCN(C2CC2)S(=O)(=O)c2c(Cl)cc(Cl)cc2Cl)CC1 (stereo not drawn) [Example 604, N-{4-[(benzylmethylamino)-phenylmethyl]-cyclohexyl}-2-{2-[cyclopropyl-(2,4,6-trichlorobenzenesulfonyl)-amino]-ethoxy}-acetamide] | -18 | 33
Cc1cc(C)c(-c2noc(C(=O)NCC(=O)NC3CCC(C(c4ccccc4)N(C)C)CC3)n2)c(C)c1 (stereo not drawn) [Example 772, 3-(2,4,6-trimethyl-phenyl)-[1,2,4]oxadiazole-5-carboxylic acid {[4-(dimethylamino-phenyl-methyl)-cyclohexylcarbamoyl]-methyl}-amide] | 11 | 41
COc1ccccc1-c1noc(C(=O)NCC(=O)NCC2CCC(C(c3cccc(F)c3)N(C)C)CC2)n1 (stereo not drawn) [Example 787, 3-(2-methoxy-phenyl)-[1,2,4]oxadiazole-5-carboxylic acid [({4-[dimethylamino-(3-fluoro-phenyl)-methyl]-cyclohexylmethyl}-carbamoyl)-methyl]-amide] | 19 | 11
CN(C)C(c1cccs1)C1CCC(NC(=O)CNC(=O)c2nc(-c3ccc(C(C)(C)C)cc3)no2)CC1 (stereo not drawn) [Example 779, 3-(4-tert-butyl-phenyl)-[1,2,4]oxadiazole-5-carboxylic acid {[4-(dimethylamino-thiophen-2-yl-methyl)-cyclohexylcarbamoyl]-methyl}-amide] | -10 | -13
